{"source": "patent US20090111182A1", "about": "“Method for Propagation of Plant” (priority 2005, published 2009)", "key": {"[1]": {"tested_on": "embryogenic callus from Double Take", "test": "Somatic embryo induction in liquid medium (flask), effects of sugar composition and addition of BA", "type": "cell-based, Spathiphyllum (cultivar Double Take)", "conditions": "sucrose 0%, sorbitol 3%, fructose 1.1%, BA 0 ppm", "method": "(§1) MS liquid medium (pH 5.8) containing 1% sucrose, 3% sorbitol, and MES 5 mM was used as basal medium. Proline and glutamic acid were added to the media at the following concentrations. […] The fresh weights the thus induced somatic embryos were measured (Table 1).\nMedia with compositions listed in Table 2 were prepared (compositions other than those listed in Table 2 were the same as those of the “somatic embryo induction medium.”)."}, "[2]": {"tested_on": "embryogenic callus of the cultivar Petite", "test": "Somatic embryo induction in liquid medium (shaken Erlenmeyer flask), effects of proline and glutamic acid", "type": "cell-based, Spathiphyllum (cultivar Petite)", "conditions": "0.05 g callus, 40 ml medium, 6 weeks", "method": "as §1"}}}
{"molecule": "O=C(CO)[C@@H](O)[C@H](O)[C@H](O)CO", "note": "[Fructose, fructose]", "values": [{"measurement": "Weight of somatic embryo", "setting": "[1]", "value": "3.8 (g)/flask"}]}
{"molecule": "N[C@@H](CCC(=O)O)C(=O)O", "note": "[Glutamic acid, glutamic acid]", "values": [{"measurement": "Amount of embryo collected", "setting": "[2]; proline 0 mM, glutamic acid 3 mM", "value": 3.5, "unit": "g/flask"}]}
{"molecule": "O=C(O)[C@@H]1CCCN1", "note": "[Proline, proline]", "values": [{"measurement": "Amount of embryo collected", "setting": "[2]; proline 3 mM, glutamic acid 0 mM", "value": 3.4, "unit": "g/flask"}]}
